Measurements published in patent publication US6812226B2, “P2X7 receptor antagonists for use in the treatment of inflammatory, immune or cardiovascular disease” (AstraZeneca AB, priority 1999, dated 2004).

melting point | SMILES
243 to 244 °C | O=C(O)c1ccccc1C(=O)c1ccc(N2CCC(N3C(=O)OCc4ccccc43)CC2)c([N+](=O)[O-])c1
120 °C | CC(C)NC(=O)c1ccc(N2CCC(N3C(=O)OCc4ccccc43)CC2)nn1
192 to 193 °C | COCCNC(=O)c1ccc(N2CCC(N3C(=O)OCc4ccccc43)CC2)c([N+](=O)[O-])c1
168 °C | CC(C)NS(=O)(=O)c1ccc(N2CCC(N3C(=O)OCc4ccccc43)CC2)c([N+](=O)[O-])c1
158 °C | Nc1ccc(N2CCC(N3C(=O)OCc4ccccc43)CC2)c(Cl)c1
200 °C | CC(C)NC(=O)c1ccc(N2CCC(N3C(=O)OCc4ccccc43)CC2)c(C#N)c1
228 °C | CC(C)C(=O)Nc1ccc(N2CCC(N3C(=O)OCc4ccccc43)CC2)c(Cl)c1
175 °C | CC(C)S(=O)(=O)Nc1ccc(N2CCC(N3C(=O)OCc4ccccc43)CC2)c(Cl)c1
155 °C | CN1CCC[C@H]1C(=O)Nc1ccc(N2CCC(N3C(=O)OCc4ccccc43)CC2)c(Cl)c1
195 °C | CC(C)NC(=O)c1cnc(N2CC[C@H](N3C(=O)OCc4ccccc43)[C@@H](C)C2)c(Cl)c1.Cl
236 to 239 °C | CC(C)NC(=O)c1cnc(N2CCC(N3C(=O)OCc4ccccc43)CC2)nc1
214 to 215 °C | CC(C)NC(=O)c1csc(N2CCC(N3C(=O)OCc4ccccc43)CC2)n1
240 to 242 °C | CC(C)NC(=O)c1ccc(N2CCC(N3C(=O)OCc4ccccc43)CC2)c(S(C)(=O)=O)c1
140 to 143 °C | CC(C)[C@@H](NC(=O)c1cnc(N2CCC(N3C(=O)OCc4ccccc43)CC2)c(Cl)c1)C(N)=O
125 to 128 °C | CC(CO)NC(=O)c1cnc(N2CCC(N3C(=O)OCc4ccccc43)CC2)c(Cl)c1 (centres unmarked)
135 to 138 °C | C#CC(C)(C)NC(=O)c1cnc(N2CCC(N3C(=O)OCc4ccccc43)CC2)c(Cl)c1
159 to 162 °C | N#CC(NC(=O)c1cnc(N2CCC(N3C(=O)OCc4ccccc43)CC2)c(Cl)c1)C(N)=O (centres unmarked)
139 to 142 °C | CC(C)C[C@@H](NC(=O)c1cnc(N2CCC(N3C(=O)OCc4ccccc43)CC2)c(Cl)c1)C(N)=O
139 to 142 °C | CC(C)C[C@H](NC(=O)c1cnc(N2CCC(N3C(=O)OCc4ccccc43)CC2)c(Cl)c1)C(N)=O
85 to 88 °C | CC(C)NC(=O)c1cnc(N2CCC(N3C(=O)COc4ccccc43)CC2)c(Cl)c1
193 to 195 °C | CC(C)NC(=O)c1ccc(N2CCC(N3C(=O)OCc4ccccc43)CC2)c([N+](=O)[O-])c1
217 to 219 °C | CC(C)NC(=O)c1cnc(N2CCC(N3C(=O)OCc4ccccc43)CC2)nc1C(F)(F)F
222 to 224 °C | O=C1OCc2ccccc2N1C1CCN(c2ccc(NCc3ncc[nH]3)cc2Cl)CC1
272 to 273 °C | O=C(c1ccccc1)c1ccc(N2CCC(N3C(=O)OCc4ccccc43)CC2)c([N+](=O)[O-])c1
177 to 179 °C | COC(=O)c1ccccc1C(=O)c1ccc(N2CCC(N3C(=O)OCc4ccccc43)CC2)c([N+](=O)[O-])c1
180 to 182 °C | NC(=O)c1ccccc1C(=O)c1ccc(N2CCC(N3C(=O)OCc4ccccc43)CC2)c([N+](=O)[O-])c1
201 to 203 °C | O=C(O)c1ccccc1C(=O)c1ccc(N2CCC(N3C(=O)CCc4ccccc43)CC2)c([N+](=O)[O-])c1
90 to 92 °C | COC(=O)c1ccccc1C(=O)c1ccc(N2CCC(N3C(=O)OCc4ccc(Cl)cc43)CC2)c([N+](=O)[O-])c1
162 to 168 °C | CC(C)NC(=O)c1cnc(N2CCC(n3c(=O)oc4ccccc43)CC2)c(Cl)c1 [Example 166, 5-Chloro-N-(1-methylethyl)-6-[4-(2-oxo-1,3-benzoxazol-3(2H)-yl)piperidin-1-yl]pyridine-3-carboxantide]
